Measurements as given in publication PMC12690121 (Nature Communications, 2025).

B1: ArnC from Salmonella enterica (ArnCSe) (enzyme)
chain: MFDAAPIKKVSVVIPVYNEQESLPELIRRTTTACESLGKAWEILLIDDGSSDSSAELMVKASQEADSHIISILLNRNYGQHAAIMAGFSHVSGDLIITLDADLQNPPEEIPRLVAKADEGFDVVGTVRQNRQDSLFRKSASKIINLLIQRTTGKAMGDYGCMLRAYRRPIIDTMLRCHERSTFIPILANIFARRATEIPVHHAEREFGDSKYSFMRLINLMYDLVTCLTTTPLRLLSLLGSVIAIGGFSLSVLLIVLRLALGPQWAAEGVFMLFAVLFTFIGAQFIGMGLLGEYIGRIYNDVRARPRYFVQQVIYPESTPFTEESHQ

Assays:
[1] = biological target: T1, ArnC (Salmonella enterica, UniProt O52324); assay: MST; assay type: binding
T1 sequence (O52324 1-327): B1 chain

[2] = biological target: the molecule itself; assay: cryo-EM structure

| Molecule | Kd [1] | stoichiometry N [2] |
| --- | --- | --- |
| O=c1ccn([C@@H]2O[C@H](COP(=O)(O)OP(=O)(O)O)[C@@H](O)[C@H]2O)c(=O)[nH]1 [UDP] | 8.5 µM | – |
| B1 | – | 4 |
